Data: patent US20220401436A1, “METHODS FOR THE TREATMENT OF CANCERS THAT HAVE ACQUIRED RESISTANCE TO KINASE INHIBITORS” (INSERM (INSTITUTE NATIONAL DE LA SANTÉ ET DE LA RECHERCHE …, priority 2019, published 2022)

Experiments:
PC9 = experiment: GFP-transduced PC9 cells treated in vitro, response and relapse followed by fluorescence detection; type: cell-based; conditions: for emergence of resistant proliferative clones: inhibitor at 1 μM
HCC827 = experiment: GFP-transduced HCC827 cells treated in vitro, response and relapse followed by fluorescence detection; type: cell-based; conditions: for emergence of resistant proliferative clones: inhibitor at 1 μM
HCC4006 = experiment: GFP-transduced HCC4006 cells treated in vitro, response and relapse followed by fluorescence detection; type: cell-based; conditions: for emergence of resistant proliferative clones: inhibitor at 1 μM
TKI-sensitive models = experiment: Relapse in several TKI-sensitive models followed by fluorescence detection (FIG. 1); type: cell-based; conditions: in combination with TKI; FIG. 1 title
Procedure: (§1) FIG. 1. […] (G-H). GFP-transduced H3122 (ALK-translocated NSCLC cell line) or A375 (BRAF-mutated melanoma cell line) were treated by Tipifarnib 0.1 μM in combination with Alectinib (2 μM) or Vemurafenib (5 μM), respectively, and response as well as relapse was followed by fluorescence detection.

[1] = test system: EGFR-mutated lung cell lines; experiment: Drug-tolerant cell (DTC) state in a panel of EGFR-mutated lung cell lines; type: cell-based
From the text: Actin polymerization is a tightly regulated process orchestrated by GTPases. Given our knowledge on the role of RHOB in resistance to targeted therapy, we assessed whether this GTPase could be responsible for the production of stress fibers in response to EGFR-TKI.

HCC2935 = type: cell-based
H3255 = type: cell-based
[2] = test system: H3122 (ALK-translocated NSCLC cell line); experiment: GFP-transduced H3122 cells treated in vitro, response and relapse followed by fluorescence detection; type: cell-based
Procedure: as §1

[3] = test system: A375 (BRAF-mutated melanoma cell line); experiment: GFP-transduced A375 cells treated in vitro, response and relapse followed by fluorescence detection; type: cell-based
Procedure: as §1

[4] = combination of Erlotinib and Tipifarnib; phase I clinical trial; cited from earlier work
[5] = combination with erlotinib 1 μM
[6] = erlotinib alone, data not shown
[7] = Tipifarnib alone at 0.1 μM, data not shown
[8] = combination with erlotinib 1 μM, Tipifarnib at 0.1 μM
[9] = combination with erlotinib 1 μM, Tipifarnib at 1 μM
[10] = Tipifarnib alone at 1 μM vs 0.1 μM, data not shown

SMILES: COC(=O)[C@H](CC(C)C)NC(=O)c1ccc(NC[C@@H](N)CS)cc1-c1cccc2ccccc12 [GGTI 298]
- emergence of resistant proliferative clones (PC9; [5]): didn't prevent the emergence of resistant proliferative clones
- emergence of resistant proliferative clones (HCC827; [5]): didn't prevent the emergence of resistant proliferative clones
- emergence of resistant proliferative clones (HCC4006; [5]): didn't prevent the emergence of resistant proliferative clones
- relapse (TKI-sensitive models): not GGTi prevent relapse

SMILES: C=CC(=O)Nc1cc(Nc2nccc(-c3cn(C)c4ccccc34)n2)c(OC)cc1N(C)CCN(C)C [osimertinib]
- generation of DTC [1]: able to generate DTC

SMILES: C#Cc1cccc(Nc2ncnc3cc(OCCOC)c(OCCOC)cc23)c1 [erlotinib]
- proliferative resistant clones after erlotinib treatment (PC9; [6]): able to generate proliferative resistant clones
- proliferative resistant clones after erlotinib treatment (HCC4006; [6]): able to generate proliferative resistant clones
- resistant clones after erlotinib treatment (HCC2935): never observed resistant clones
- resistant clones after erlotinib treatment (H3255): never observed resistant clones
- generation of DTC [1]: able to generate DTC

SMILES: Cn1cncc1[C@@](N)(c1ccc(Cl)cc1)c1ccc2c(c1)c(-c1cccc(Cl)c1)cc(=O)n2C [Tipifarnib, (R)-6-[amino(4-chlorophenyl)(1-methyl-1H-imidazol-5-yl)methyl]-4-(3-chlorophenyl)-1-methyl-2(1H)-quinolinone]
- effect on cells growth (PC9; [7]): little-to-non effect
- elimination of drug tolerant cells (PC9; [8]): efficiently eliminated all drug tolerant cells
- emergence of resistant clones (PC9; [8]): fully prevented the emergence of resistant clones
- elimination of drug tolerant cells (PC9; [9]): efficiently eliminated all drug tolerant cells
- emergence of resistant proliferative clones (PC9; [5]): fully prevented the emergence of resistant clones
- effect on cells growth (HCC827; [7]): little-to-non effect
- elimination of drug tolerant cells (HCC827; [8]): efficiently eliminated all drug tolerant cells
- emergence of resistant clones (HCC827; [8]): fully prevented the emergence of resistant clones
- elimination of drug tolerant cells (HCC827; [9]): efficiently eliminated all drug tolerant cells
- emergence of resistant proliferative clones (HCC827; [5]): fully prevented the emergence of resistant clones
- effect on cells growth (HCC4006; [7]): some cytostatic effect
- cytostatic effect (HCC4006; [10]): exacerbated
- elimination of drug tolerant cells (HCC4006; [8]): efficiently eliminated all drug tolerant cells
- emergence of resistant clones (HCC4006; [8]): fully prevented the emergence of resistant clones
- elimination of drug tolerant cells (HCC4006; [9]): efficiently eliminated all drug tolerant cells
- emergence of resistant proliferative clones (HCC4006; [5]): fully prevented the emergence of resistant clones
- effect on cells growth ([2]; Tipifarnib alone at 0.1 μM): some cytostatic effect
- cytostatic effect [2, 10]: exacerbated
- effect on cells growth ([3]; Tipifarnib alone at 0.1 μM): some cytostatic effect
- cytostatic effect [3, 10]: exacerbated
- cell death / remaining DTC after several days of treatment ([1]; combination of Tipifarnib and Erlotinib (1 μM), cell lines not named, data not shown): complete cell death
- relapse (TKI-sensitive models): prevent relapse
- tolerability in patients [4]: well tolerated
